Literature values as cited in paper PMC7485629 (Biochemistry, 2019).
Read-outs that look alike come from different tables or passages of the source.

Tested on: N-terminus of PD-L1
Details: crystal structure

| Compound | interaction with N-terminus of PD-L1 (ref [66]) | interaction with N-terminus of PD-L1 (ref [21]) |
| --- | --- | --- |
| Cc1c(COc2cc(F)c(CNC[C@@H](O)CC(=O)O)cc2F)cccc1-c1ccc2c(c1)OCCO2 [BMS-200] | hydrogen bond with Thr20 | – |
| COc1nc(OCc2cccc(-c3ccccc3)c2C)ccc1CNCCNC(C)=O [BMS-202] | – | water-mediated interaction with the backbone carbonyl of Phe19 |
